Assay results as given in US3965139A, “2-Chloro-N-(cyanomethyl)acetanilides” (Diamond Shamrock Corporation, priority 1974, dated 1976).

What was measured:
Soybeans [1] = test: Preemergence test in loam-type heavier soil, crop; assay type: in vivo; details: for % Control of Plant Growth, Soybeans: about three weeks after planting, loam-type heavier soil
Text: (§1) This example illustrates the performance of 2-chloro-N-cyanomethyl-2',6'-diethylacetanilide in a different type soil than employed in the previous example. For this test, test plots of a loam-type, heavier soil containing 5.5% organic matter are sprayed uniformly with formulations of the test compound providing dosage rates of 4, 2, and 1 pound per acre (lb/A). The plots are then sown to cotton and soybeans and with seeds of the broadleaf, redroot pigweed, and the grasses, Johnson grass and yellow foxtail, as indicator weed plants.
(§2) Approximately three weeks after planting, the test plots are examined and percent control of plant growth is rated from 0% to 100% as previously described.

Goosegrass = test: Field Preemergence Test, light sandy soil; assay type: in vivo; details: 3-4 weeks after planting
Text: (§3) Test plots of fertilized, light sandy soil containing 0.7% organic matter are sprayed uniformly with aqueous suspensions prepared from an emulsifiable concentrate containing 12%, by weight, of 2-chloro-N-cyanomethyl-2',6'-diethylacetanilide (the product of Example 1) diluted to provide dosage rates of the test compound corresponding to 2, 1, 0.5, and 0.25 pound per acre (lb/A). The plots are then sown with seeds of the following crop plants: sweet corn, cotton (Coker 413), and soybeans, var. Davis. Seeds of the following weed plants are planted: redroot pigweed, prickly sida, and common lambsquarter (broadleaf species); goosegrass and giant foxtail (grass species).
(§4) Three to four weeks after planting, percent control (plant kill) of the test plants is estimated, from a rating of 0 which denotes no injury to the plant up to 100 which denotes complete destruction. The % weed control exerted by 2-chloro-N-cyanomethyl-2',6'-diethylacetanilide is as follows: […]

Prickly Sida = test: Field Preemergence Test, light sandy soil; assay type: in vivo; details: 3-4 weeks after planting
Text: as §3, §4

Redroot Pigweed = test: Field Preemergence Test, light sandy soil; assay type: in vivo; details: 3-4 weeks after planting
Text: as §3, §4

Giant Foxtail = test: Field Preemergence Test, light sandy soil; assay type: in vivo; details: 3-4 weeks after planting
Text: as §3, §4

Corn [2] = test: Field Preemergence Test, phytotoxic effects on crop; assay type: in vivo, sweet corn; details: light sandy soil; for % Crop Kill, Corn: 3-4 weeks after planting
Text: as §3
(§5) Three to four weeks after planting, percent control (plant kill) of the test plants is estimated, from a rating of 0 which denotes no injury to the plant up to 100 which denotes complete destruction. The % weed control exerted by 2-chloro-N-cyanomethyl-2',6'-diethylacetanilide is as follows:
(§6) Phytotoxic effects observed on the crop species is estimated with results as follows: […]

Cotton = test: as above; assay type: in vivo, cotton (Coker 413); details: light sandy soil; for % Crop Kill, Cotton: 3-4 weeks after planting
Text: as §3, §5, §6

grass species [3] = test: Greenhouse Preemergence Herbicide Test, grass species; assay type: in vivo; details: two weeks after treatment
Protocol: To illustrate the preemergence herbicidal efficiency of the N-(cyanomethyl)acetanilides of this invention, test formulations are prepared of representative compounds by mixing 20 ml of an acetone solution containing 0.125 g of the test compound with 20 ml of water containing 0.01 g of Triton X-155 surfactant. The resultant formulations contain 3125 ppm of test compound, 50% by volume of acetone and 0.025% by weight of surfactant. Appropriate lower concentrations are obtained by diluting this formulation with surfactant-acetone solution so that the concentration of adjuvants is maintained at the original levels.
Seeds of three broadleaf and three grass species are planted in soil contained in 10 × 8 × 3 inch aluminum pans filled with 1.5 inches of composted soil. The broadleaf species are pigweed (Amaranthus retroflexus), a velvetleaf (Abutilon theophrasti), and morningglory (Ipomea coccinea); the grasses are red millet (Panicum milliacem), greenfoxtail (Setaria viridis) and Japanese millet (Echinochloa frumentacea).
The pans are then sprayed so that the soil surface is uniformly covered with dilutions of the stock formulation providing dosage rates of the test compounds corresponding to 8, 4, 2, 1, 0.5, and 0.25 lb/A. Two weeks after treatment, percent control (plant kill) at each dosage rate is estimated. The lowest concentration of each compound (lb/A) found to provide 50% or greater control of the grass weeds is as follows: […]

grassy-type weeds = test: Field Preemergence Test, light sandy soil, grasses overall; assay type: in vivo, goosegrass and giant foxtail
Text: as §3, §4

Pigweed = test: Preemergence test in loam-type heavier soil, weed; assay type: in vivo, redroot pigweed; details: about three weeks after planting
Text: as §1, §2

Yellow Foxtail = test: Preemergence test in loam-type heavier soil, weed; assay type: in vivo; details: about three weeks after planting
Text: as §1, §2

Johnsongrass = test: Preemergence test in loam-type heavier soil, weed; assay type: in vivo, Johnson grass; details: about three weeks after planting
Text: as §1, §2

Corn [4] = test: Preemergence test in loam-type heavier soil, crop; assay type: in vivo; details: for % Control of Plant Growth, Corn: about three weeks after planting, loam-type heavier soil
Soybeans [5] = test: Field Preemergence Test, phytotoxic effects on crop; assay type: in vivo, var. Davis; details: light sandy soil; for % Crop Kill, Soybeans: 3-4 weeks after planting
Text: as §3, §5, §6

broadleaf species [6] = test: Field Preemergence Test, light sandy soil, broadleaf species overall; assay type: in vivo, redroot pigweed, prickly sida, common lambsquarter
Text: as §3, §4

broadleaf species [7] = test: Preemergence test in loam-type heavier soil, broadleaf species; assay type: in vivo, redroot pigweed; details: 1-2 lb/A; heavy soil
Text: as §1, §2

Lambsquarter = test: Field Preemergence Test, light sandy soil; assay type: in vivo, common lambsquarter; details: 3-4 weeks after planting
Text: as §3, §4

grass species [8] = test: Preemergence test in loam-type heavier soil, grasses overall; assay type: in vivo, Johnson grass and yellow foxtail; details: 1-2 lb/A; heavy soil
Text: as §1, §2

In the case of `CCc1cccc(CC)c1N(CC#N)C(=O)CCl` [Example 1, 2-chloro-N-cyanomethyl-2',6'-diethylacetanilide], the “injury to soybean stand” value (Soybeans [1]; 1-2 lb/A, heavy soil) is reported as “noninjurious”, the “% Control of Plant Growth, Soybeans” value (Soybeans [1]; 1 lb/A) is reported as 0% and the “% Control of Plant Growth, Soybeans” value (Soybeans [1]; 2 lb/A) is reported as 0%. For the same compound, the “% Control of Plant Growth, Soybeans” value (Soybeans [1]; 4 lb/A) was 5%, the “% Weed Control, Goosegrass” value (Goosegrass; 0.25 lb/A) was 63% and the “% Weed Control, Goosegrass” value (Goosegrass; 0.5 lb/A) was 88%. For the same compound, the “% Weed Control, Goosegrass” value (Goosegrass; 1 lb/A) was 95%, the “% Weed Control, Goosegrass” value (Goosegrass; 2 lb/A) was 99% and the “% Weed Control, Prickly Sida” value (Prickly Sida; 0.25 lb/A) was 0%. For the same compound, the “% Weed Control, Prickly Sida” value (Prickly Sida; 0.5 lb/A) was 0%, the “% Weed Control, Prickly Sida” value (Prickly Sida; 1 lb/A) was 12% and the “% Weed Control, Prickly Sida” value (Prickly Sida; 2 lb/A) was 40%. The “% Weed Control, Redroot Pigweed” value (Redroot Pigweed; 0.25 lb/A) was 0%, the “% Weed Control, Redroot Pigweed” value (Redroot Pigweed; 0.5 lb/A) was 33% and the “% Weed Control, Redroot Pigweed” value (Redroot Pigweed; 1 lb/A) was 55%. For the same compound, the “% Weed Control, Redroot Pigweed” value (Redroot Pigweed; 2 lb/A) was 90%, the “% Weed Control, Giant Foxtail” value (Giant Foxtail; 0.25 lb/A) was 0% and the “% Weed Control, Giant Foxtail” value (Giant Foxtail; 0.5 lb/A) was 27%. The “% Weed Control, Giant Foxtail” value (Giant Foxtail; 1 lb/A) was 65%, the “% Weed Control, Giant Foxtail” value (Giant Foxtail; 2 lb/A) was 82% and the “% Crop Kill, Corn” value (Corn [2]; 1 lb/A) was 0%. For the same compound, the “% Crop Kill, Corn” value (Corn [2]; 2 lb/A) was 0%, the tolerance of corn (Corn [2]; 2 lb/A) was “tolerant” and the “% Crop Kill, Cotton” value (Cotton; 1 lb/A) was 0%. For the same compound, the “% Crop Kill, Cotton” value (Cotton; 2 lb/A) was 3%, the “phytotoxicity effects on cotton” value (Cotton; 2 lb/A) was “minimal phytotoxicity effects” and the “Minimum Dosage Providing at Least 50% Preemergence Control of Grass Species” value (grass species [3]) was 0.50 lb/A. The “control of grassy-type weeds” value (grassy-type weeds) was “good control”, the “% Control of Plant Growth, Pigweed” value (Pigweed; 1 lb/A) was 0% and the “% Control of Plant Growth, Pigweed” value (Pigweed; 2 lb/A) was 0%. The “% Control of Plant Growth, Pigweed” value (Pigweed; 4 lb/A) was 40%, the “% Control of Plant Growth, Yellow Foxtail” value (“% Control … Yellow Foxtail” for short) (Yellow Foxtail; 1 lb/A) was 90% and the “% Control … Yellow Foxtail” value (Yellow Foxtail; 2 lb/A) was 95%. For the same compound, the “% Control … Yellow Foxtail” value (Yellow Foxtail; 4 lb/A) was 95%, the “% Control of Plant Growth, Johnsongrass” value (Johnsongrass; 1 lb/A) was 60% and the “% Control of Plant Growth, Johnsongrass” value (Johnsongrass; 2 lb/A) was 80%. The “% Control of Plant Growth, Johnsongrass” value (Johnsongrass; 4 lb/A) was 80%, the “injury to corn stand” value (Corn [4]; 1-2 lb/A, heavy soil) was “noninjurious” and the “% Control of Plant Growth, Corn” value (Corn [4]; 1 lb/A) was 0%. The “% Control of Plant Growth, Corn” value (Corn [4]; 2 lb/A) was 0%, the “% Control of Plant Growth, Corn” value (Corn [4]; 4 lb/A) was 10% and the “% Crop Kill, Soybeans” value (Soybeans [5]; 1 lb/A) was 0%. For the same compound, the “% Crop Kill, Soybeans” value (Soybeans [5]; 2 lb/A) was 0%, the tolerance of soybeans (Soybeans [5]; 2 lb/A) was “tolerant” and the “broadleaf weed control in a light, sandy soil” value (broadleaf species [6]; 1-2 lb/A) was “good broadleaf weed control”. The “herbicidal activity against two of the broadleaf species” value (broadleaf species [6]; 2 lb/A) was “significant herbicidal activity”, the “activity for controlling the broadleaf species” value (broadleaf species [7]) was “no activity” and the “% Weed Control, Lambsquarter” value (Lambsquarter; 0.25 lb/A) was 0%. The “% Weed Control, Lambsquarter” value (Lambsquarter; 0.5 lb/A) was 20%, the “% Weed Control, Lambsquarter” value (Lambsquarter; 1 lb/A) was 60% and the “% Weed Control, Lambsquarter” value (Lambsquarter; 2 lb/A) was 88%. The “selectivity for controlling the grass species” value (grass species [8]) was “selective for controlling the grass species”.
With `Cc1cccc(N(CC#N)C(=O)CCl)c1` [Example 8, 2-chloro-N-cyanomethyl-3'-methylacetanilide] the “Minimum Dosage Providing at Least 50% Preemergence Control of Grass Species” value (grass species [3]) was 0.50 lb/A.
With `N#CCN(C(=O)CCl)c1ccccc1Cl` [Example 9, 2,2'-dichloro-N-(cyanomethyl)acetanilide] the “Minimum Dosage Providing at Least 50% Preemergence Control of Grass Species” value (grass species [3]) was 0.50 lb/A.
`Cc1cccc(C)c1N(CC#N)C(=O)CCl` [Example 10, 2-chloro-N-cyanomethyl-2',6'-dimethylacetanilide] was tested, and the “Minimum Dosage Providing at Least 50% Preemergence Control of Grass Species” value (grass species [3]) was 0.25 lb/A.
In the case of `CC(C)c1ccccc1N(CC#N)C(=O)CCl` [Example 11, 2-chloro-N-cyanomethyl-2'-isopropylacetanilide], the “Minimum Dosage Providing at Least 50% Preemergence Control of Grass Species” value (grass species [3]) is reported as 1.00 lb/A.
`CC(C)c1cccc(C(C)C)c1N(CC#N)C(=O)CCl` [Example 12, 2-chloro-N-cyanomethyl-2',6'-diisopropylacetanilide] was tested, and the “Minimum Dosage Providing at Least 50% Preemergence Control of Grass Species” value (grass species [3]) was 0.50 lb/A.
For `COc1ccccc1N(CC#N)C(=O)CCl` [Example 13, 2-chloro-N-cyanomethyl-2'-methoxyacetanilide], the “Minimum Dosage Providing at Least 50% Preemergence Control of Grass Species” value (grass species [3]) was 0.50 lb/A.
For `CCc1ccccc1N(CC#N)C(=O)CCl` [Example 14, 2-chloro-N-cyanomethyl-2'-ethylacetanilide], the “Minimum Dosage Providing at Least 50% Preemergence Control of Grass Species” value (grass species [3]) was 0.50 lb/A.
`N#CCN(C(=O)CCl)c1ccccc1Br` [Example 15, 2'-bromo-2-chloro-N-(cyanomethyl)acetanilide] was tested, and the “Minimum Dosage Providing at Least 50% Preemergence Control of Grass Species” value (grass species [3]) was 1.00 lb/A.
